Drawing on PubChem BioAssay AID686982, this text covers parasite load, % of control and viability for 3 molecules.

Test [1] concerns P. berghei liver stage in HepG2, luciferase, 48 h. In words: kinase inhibitors blocking P. berghei liver stage, confirmation, cell-based, HepG2, luciferase, host viability, known kinase inhibitors (AID 686982). The note with it: at 10 µM; stronger effect = lower value.
Test in test [2]: as above
Particulars: P. berghei liver stage in HepG2, luciferase, 48 h; measured here: HepG2 viability, % of control; at 10 µM; stronger effect = lower value.

For the molecule `Cc1ccc2c(-c3ccnc(Nc4ccccc4)n3)c(-c3ccc(F)cc3)nn2n1`, the parasite load, % of control in test [1] was 1.15%. In test [2], the viability amounted to 206%.
Taken in the same sequence, the figures for `COc1cc[nH]c1C=C1C(=O)Nc2ccc(F)c(C#CC3(O)CCOCC3)c21` were 1.05% and 111%.
On the same counts, the results for `Fc1ccc(-c2c(-c3ccncc3)[nH]c3cccnc23)cc1` are 1.19% and 163%.
